Assays:
Format in all cases: cell-based, Halanaerobium hydrogeniformans
H. hydrogeniformans [1] = test: Requirement of B12: 1,3-propanediol production from 30 mM glycerol over a vitamin B12 gradient (HPLC); details: for Percent mole/mole conversion of glycerol to 1,3-propanediol / 1,3-propanediol produced: 30 mM glycerol
Experimental: (§1) Anaerobic cultures were prepared in 160 mL serum bottles. The medium was prepared by boiling to degas under a N2 blanket. As the medium cooled, reductant stock mix was added to the media that contained 0.75 g Na2S and 0.6 g cysteine per liter. Once the media was cooled, the flasks were transferred into a Coy anaerobic glove bag where the 50 mL of media was dispensed into 160 mL serum bottles filled and autoclaved (121° C., 20 min). After autoclaving, the headspace gas was exchanged for 80% N2/20% CO2 mixture. The bottles then were inoculated with a 10% inoculum from previous stock cultures. 30 mM glycerol was added. Vitamin B12 supplementation from anaerobic, filter-sterilized stocks were added right before inoculation at 0 μg/L, 25 μg/L, 50 μg/L, 75 μg/L, and 100 μg/L.
Samples were taken every 24 hours. 5 mL syringes were degassed with N2/CO2 mix, and 1 mL of culture sample was removed for each of the sample periods. The sample was placed in a 1.5 mL Eppendorf tube, and centrifuged for 5 min at 13,000×g. The supernatant was decanted into another 1.5 mL Eppendorf tube, and frozen for HPLC analysis.
For HPLC analysis, filter sterilized samples ([…] PTFE filters) were injected onto a 300×7.8 mm Aminex HPX-87H column (BioRad, Hercules, Calif.) maintained at 50° C. The mobile phase was 2.5 mM H2SO4 maintained at a constant flow rate of 0.6 ml/min and at approximately 2.2 MPa. Detection was done with both a UV 231 (at 210 nm) and refractive index monitor.

H. hydrogeniformans [2] = test: Tolerance of H. hydrogeniformans to glycerol (growth by turbidity); details: 7% NaCl, pH 11
Experimental: as §1, with “The tolerance of H. hydrogeniformans to concentrations of glycerol was examined. Anaerobic” for “Anaerobic”, “Sterilized” for “30 mM”, “was” for “was added. Vitamin B12 supplementation from anaerobic, filter-sterilized stocks were”, “to the serum bottles to achieve 7.5, 15, 30, 60, 120, 240, 480, 960, and 1920 mM. Growth was examined by turbidity readings taken” for “right before inoculation”, “[…].” for “0 μg/L, 25 μg/L, 50 μg/L, 75 μg/L, and 100 μg/L.”

H. hydrogeniformans [3] = test: Tolerance of H. hydrogeniformans to 1,3-propanediol (growth by turbidity); details: for Growth: 30 mM glycerol
Experimental: The tolerance of H. hydrogeniformans to increasing concentrations of 1,3-propanediol was examined. Anaerobic cultures were prepared in 160 mL serum bottles. The medium was prepared by boiling to degas under a N2 blanket. As the medium cooled, reductant stock mix was added to the media that contained 0.75 g Na2S and 0.6 g cysteine per liter. Once the media was cooled, the flasks were transferred into a Coy anaerobic glove bag where the 50 mL of media was dispensed into 160 mL serum bottles filled and autoclaved (121° C., 20 min). After autoclaving, the headspace gas was exchanged for 80% N2/20% CO2 mixture. The bottles then were inoculated with a 10% inoculum from previous stock cultures and amended with 30 mM glycerol. Sterilized 1,3-propanediol was added to the serum bottles to achieve 10, 30, 60, 120, 380, and 750 mM. Growth was examined by turbidity readings taken at […].

OCC(O)CO [Glycerol, glycerol]
Percent mole/mole conversion of glycerol to 1,3-propanediol (H. hydrogeniformans [1]; B12 amendment 0 μg/L): 31.5 % mol 1,3-propandiol/mol glycerol
conversion rate (H. hydrogeniformans [1]; absence of B12): 31%
1,3-propanediol produced (H. hydrogeniformans [1]; no vitamin B12 provided): approximately 8.5 mM
Growth (H. hydrogeniformans [2]; Glycerol 7.5 mM): capable of growth
Growth (H. hydrogeniformans [2]; Glycerol 15 mM): capable of growth
Growth (H. hydrogeniformans [2]; Glycerol 30 mM): capable of growth
Growth (H. hydrogeniformans [2]; Glycerol 60 mM): capable of growth
Growth (H. hydrogeniformans [2]; Glycerol 120 mM): capable of growth
Growth (H. hydrogeniformans [2]; Glycerol 240 mM): capable of growth
Growth (H. hydrogeniformans [2]; Glycerol 480 mM): capable of growth
Growth (H. hydrogeniformans [2]; Glycerol 960 mM): capable of growth
Growth (H. hydrogeniformans [2]; Glycerol 1920 mM): capable of growth

OCCCO [1,3-propanediol]
Growth (H. hydrogeniformans [3]; 1,3-propanediol 10 mM): capable of growth
Growth (H. hydrogeniformans [3]; 1,3-propanediol 30 mM): capable of growth
Growth (H. hydrogeniformans [3]; 1,3-propanediol 60 mM): capable of growth
Growth (H. hydrogeniformans [3]; 1,3-propanediol 120 mM): capable of growth
Growth (H. hydrogeniformans [3]; 1,3-propanediol 380 mM): capable of growth
1,3-propanediol concentration at which growth is possible (H. hydrogeniformans [3]; 7% NaCl, pH 11): 380 mM
1,3-propanediol concentration tolerated (H. hydrogeniformans [3]; in addition to 7% (w/v) and pH 11): at least 0.38 M

vitamin B12
Percent mole/mole conversion of glycerol to 1,3-propanediol (H. hydrogeniformans [1]; B12 amendment 25 μg/L): 59.1 % mol 1,3-propandiol/mol glycerol
Percent mole/mole conversion of glycerol to 1,3-propanediol (H. hydrogeniformans [1]; B12 amendment 50 μg/L): 60.3 % mol 1,3-propandiol/mol glycerol
Percent mole/mole conversion of glycerol to 1,3-propanediol (H. hydrogeniformans [1]; B12 amendment 75 μg/L): 60.1 % mol 1,3-propandiol/mol glycerol
Percent mole/mole conversion of glycerol to 1,3-propanediol (H. hydrogeniformans [1]; B12 amendment 100 μg/L): 60.2 % mol 1,3-propandiol/mol glycerol
conversion rate (H. hydrogeniformans [1]; B12 supplementation >25 μg/L): approximately 60%
1,3-propanediol produced (H. hydrogeniformans [1]; culture amended with 25, 50, 75, or 100 μg/L vitamin B12): Approximately 16.5 mM
